Three compounds from US6297230A, “Cyanoaziridines for treating cancer” (priority 2000, dated 2001) can be followed below.

In brackets after ≈: the same amount, converted by molar mass.

In assay [1] the test system is 8226/S myeloma cells. As to the kind of experiment: MTT growth inhibition, parental 8226 myeloma cells. The assay is classed as cell-based, human. The conditions noted are these: Homo sapiens; Table 5; Sensitive (parental) 8226; read-out: IC50. An outline of the steps: (§1)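 Parental 8226/S and imexon-resistant 8226/I-R myeloma cells (selected with imexon up to 3.25 mg/mL) were exposed to drug continuously for 10 days at 37 °C. Viability was measured by MTT absorbance at 570 nm relative to untreated controls. IC50 was taken as the concentration giving 50% growth inhibition, from at least 2 assays.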

In assay [2] the test system is 8226/I-R myeloma cells. As to the kind of experiment: MTT growth inhibition, imexon-resistant 8226 myeloma cells. The assay is classed as cell-based, human. As to conditions: for IC50: Homo sapiens, imexon-resistant 8226, read-out: IC50; for IC50 / Fold Resistance of IC50 R/IC50 's: Table 5; for Fold Resistance of IC50 R/IC50 's: imexon-resistant vs sensitive 8226. An outline of the steps:
as §1

For assay [3], the system named is L-1210 leukemia cells (sensitive). Briefly: MTT growth inhibition, sensitive L-1210 leukemia cells. In kind it is cell-based, mouse. As to conditions: Mus musculus, L1210, 192 h; Sensitive L-1210; drug continuously present 8 days; read-out: IC50. The method, then:
Tumors are disaggregated into single cell suspensions using mechanical, hypoosmotic, and/or enzymatic (trypsin) methods. The cells are plated at a concentration of 3-5×10^4 per […] well into plastic 96-well plates. Growth medium containing 5-10% (vol/vol) heat-inactivated fetal bovine serum and penicillin/streptomycin (both […]) are added prior to incubation at 37° C. for 6 days. Afterwards the medium containing the drug is removed, the cells are centrifuged in fresh medium or phosphate-buffered saline (pH 7.4). A tetrazolium dye, […]-2,5-diphenyl tetrazolium (MTT), is then added. (Mossman, T., J Immunol 65:55-63, 1983.) This dye forms a colored formazan product upon activation by mitochondrial reductases in viable cells. Typically, the formazan product is solubilized in acid-propanol or DMSO. The intensity of the color is proportional to viable cell numbers and this is quantitated by spectrophotometric absorbance at 570 nm on a micro ELISA plate reader. The results are calibrated in % control absorbance from untreated tumor cells. (Alley, et al., Cancer Res 48:589-601, 1988.) […]
Murine L-1210 Leukemia Cells were first described by Law, et al. from a female DBA/2 mouse exposed to topical methylcholanthrene. (Law, et al., J Natl Cancer Inst 10:179-192, 1949.) The cells represent a lymphocytic lineage and are highly tumorigenic in syngeneic DBA/2 mice, producing lethality typically 10-14 days after inoculation. This cell line has been used extensively to characterize the antitumor activity of chemotherapeutic agents. (Goldin, et al., Cancer Res (Cancer Chemotherapy Screening Data IX) 21:27-92, 1961.) The L-1210 cells have a model 40-41 chromosomes and a very high plating efficiency in suspension cultures in vitro.
*Drug continuously present for 8 days; IC50 measured by MTT dye

As a reminder, the IC50 is the point on the concentration scale where inhibition reaches its midpoint. In the case of `CCOC(=O)CNC(=O)N1CC1C#N` (stereo not shown) [AMP 420, 2-Cyanoaziridine-1-[N-(ethoxycarbonyl)methyl]carboxamide], the IC50 in assay [1] came to 5 µg/mL (≈ 25.4 µM); in assay [2], 6 µg/mL (≈ 30.4 µM); in assay [3] it was 2.5 µg/mL (≈ 12.7 µM). Besides, the “Cross-resistance with imexon” value in assay [2] (8226 imexon-resistant vs parental) is reported as “lack of significant (>50% IC50 change) cross-resistance with imexon”. Further, the “Fold Resistance of IC50 R/IC50 's” value in assay [2] worked out at 1.2.

Regarding `CC(C)(C)NC(=O)N1CC1C#N` (stereo not shown) [AMP 410, 2-Cyanoaziridine-1-(N-t-butyl)carboxamide], the IC50 in assay [1] turned out to be 20 µg/mL (≈ 120 µM); in assay [2] it was 36 µg/mL (≈ 215 µM); in assay [3] it was 22 µg/mL (≈ 132 µM). In assay [2], the “Fold Resistance of IC50 R/IC50 's” value was found to be 1.8.

Regarding `CCNC(=O)N1CC1C#N` (stereo not shown) [AMP 406, 2-Cyanoaziridine-1-(N-ethyl)carboxamide], the figures for the IC50 in assay [1], in assay [2] and in assay [3] were 3.1 µg/mL (≈ 22.3 µM), 3.6 µg/mL (≈ 25.9 µM) and 2 µg/mL (≈ 14.4 µM), respectively. Besides, in assay [2], the “Fold Resistance of IC50 R/IC50 's” value was determined as 1.2.
